Patent US8497352B2, “Use of Wnt5-α peptide derivates for the treatment of melanoma and gastric cancer” (Wntresearch AB, priority 2008, dated 2013)
Entries after “also recorded” stand apart in the source; their conditions may differ. Where no end group is shown, it is not given here. The star is where a group is joined. Boc = CC(C)(C)OC(=O)*; For = O=C*

Tests used:
HTB63 melanoma cells [1] = test: Wound-healing assay (migration), HTB63 cells; format: cell-based, human
Experimental: (§1) Cells were plated in 12 well plates and allowed to grow into a confluent layer in complete RPMI (for A2058 cells) or complete McCoy's 5A medium (for HTB63 cells). As indicated, cells were pre-incubated with the Box5 peptide (100 μM) or control solvent for 40 min with continuous agitation. A wound was then inflicted by making a scratch through the confluent layer of cells with a pipette tip. During the migration period of the assay, cells were incubated either in serum-free medium or in the case of HTB63 cells in their own serum-free-conditioned medium collected from cells cultured for 48 h and used within 2 days after collection. The exact conditions of each experiment are described above. To avoid loss of activity, cell medium was changed after 24 hours. A picture for each scratch was taken in the same area of cells at 0, 16, 24, 40 and 48 hours, and wound healing was measured as percentage of wound area closed. For each experimental condition wound healing was analysed in triplicate. All data were based on 3 to 8 separate experiments as indicated.

HTB63 melanoma cells [2] = test: BD Matrigel invasion chamber assay, HTB63 cells; format: cell-based, human
Experimental: (§2) Cell invasion was analyzed using the BD Matrigel™ invasion chamber assay (BD Biosciences, Bedford, Mass.). Prior to the initiation of each experiment, the cells were detached with Versene and re-suspended as single cells in serum-free RPMI medium. As indicated, cells were pre-incubated with the Box5 peptide (100 μM) or control solvent for 40 min with continuous agitation. An aliquot of the cell suspension containing 25,000 cells and 100 μM Box5 or control solvent was then added to the upper transwell chamber, and the lower chamber was filled with serum-containing (10%) medium. The invasion chambers were shaken horizontally for 5 min to ensure even distribution of the cells in suspension and subsequently across the membrane surface. The cells were allowed to invade for the periods of time indicated at 37° C. in a humidified atmosphere of 5% CO2. The medium was discarded and cells were fixed in 4% paraformaldehyde for 10 min. The cells were stained with 0.5% crystal violet in 20% methanol for 10 min and the non-invading cells on the inner side of the membrane were removed with a cotton-tipped applicator. The membrane was cut out of the chamber using a scalpel blade and the stained cells on the lower chamber side of the membrane were counted.

[3] = tested on: Wnt-5a protein expression; test: Wnt-5a protein expression in HTB63 cells, Western blot; format: cell-based, human
Experimental: (§3) The cells were either directly lysed in 1× Laemmli buffer containing DTT and boiled for 10 min, or lysed in buffer containing 50 mM Tris-HCl (pH 7.5), 1% Triton X-100, 100 mM NaCl, 10 mM MgCl2, 20% glycerol, 1 mM Na3VO4, and protease inhibitors (20 μg/ml aprotinin, 1 μg/ml leupeptin, 2.5 mM benzamidine, and 2 mM pefabloc). Cell treated with lysis buffer were centrifuged at 15,000 rpm for 5 min at 4° C. The protein content in each sample was determined and adjusted to ensure equal loading of protein in each lane. Thereafter, 50 mM DTT and 5× concentrated Laemmli buffer was added and the samples boiled for 5 min. The samples were separated by SDS polyacrylamide gel electrophoresis and subsequently transferred to PVDF membranes. For immunoblotting the membranes were blocked in PBS supplemented with 0.2% Tween 20 and 1% non-fat milk for Wnt-5a or 3% non-fat milk as for all other antibodies for 1 h. Thereafter the membranes were incubated for 1 h at room temperature or overnight at 4° C. with the indicated primary Ab (1:25,000 for β-actin; 1:1,000 for Wnt-5a and 1:1,000 for TGF-β1) in 2% non-fat milk or 1.5% BSA. After extensive washing in PBS with 0.2% Tween, the membranes were incubated for 1 h with a horseradish peroxidase-conjugated secondary Ab in 2% non-fat milk or 1.5% BSA and again extensively washed. Finally, the Ab-antigen complexes were detected using enhanced chemiluminescence. […]

A2058 melanoma cells [4] = test: Wound-healing assay (migration), A2058 cells; format: cell-based, human
Experimental: as §1

breast cancer cell = conditions: breast tumor cells lacking endogenous Wnt-5a; cited from earlier work
breast cancer metastasis = conditions: mouse model; cited from earlier work
A2058 melanoma cells [5] = test: BD Matrigel invasion chamber assay, A2058 cells; format: cell-based, human
Experimental: as §2

[6] = tested on: Wnt-5a-induced Ca^2+ signaling; test: Determination of cytosolic free calcium levels (fura-2) in A2058 cells; format: cell-based, human
Experimental: Cells grown on a glass cover slip were incubated with 4 μM fura-2/AM in culture medium for 30 minutes at 37° C. (Dejmek et al., 2006). After fura-2 loading of the cells, the cover slips were washed and mounted in a specially designed chamber to which was added a calcium-containing medium (136 mM NaCl, 4.7 mM KCl, 1.2 mM MgSO4, 1.1 mM CaCl2, 1.2 KH2PO4, 5 mM NaHCO3, 5.5 mM glucose and 20 mM Hepes, pH 7.4). The chamber was then placed in a system consisting of a NIKON Diaphot microscope connected to a Photon Technology International (PTI) imaging system. The cells were first allowed to rest for 10 minutes before any stimulation was performed. Fura-2 fluorescence was then recorded continuously from the cells before and after the stimulations with either Wnt-5a, endothelin-1 or charbacol (as indicated in the legend to FIG. 8) using an excitation wavelength rapidly alternating between 340 and 380 nm, while the emission wavelength was set at 510 nm. The fluorescence intensity ratios (340/380 nm) were subsequently calculated and analyzed using the PTI Image Master Software. Statistical analysis—The Student's t-test for unpaired samples was used to analyze differences in the experiments, where *=p<0.05, **=p<0.01, and ***=p<0.001

PKC = test: MARCKS phosphorylation (PKC activity) in A2058 cells, Western blot; format: cell-based, human; conditions: 100 μM Box5 overnight, rWnt-5a 0.2 μg/ml
Experimental: as §3, with “Thereafter the membranes were incubated for 1 h at room temperature or overnight at 4° C. with the indicated primary Ab (1:25,000 for β-actin; 1:1,000 for Wnt-5a and 1:1,000 for TGF-β1) in 2% non-fat milk or 1.5% BSA. After extensive washing in PBS with 0.2% Tween, the membranes were incubated for 1 h with a horseradish peroxidase-conjugated secondary Ab in 2% non-fat milk or 1.5% BSA and again extensively washed.” left out
In the present study the level of PKC auto-phosphorylation (Weeraratna et al., 2002, Dissanayake et al., 2007) was not estimated since its relation to PKC kinase activity is unclear. Instead the effects of Wnt-5a and Box5 on the phosphorylation of the endogenous PKC substrate MARCKS were analyzed as a direct means of estimating the activity level of PKC in the melanoma cells. […]

## NC(=O)c1ccc(-c2nc(-c3ccc4c(c3)OCO4)c(-c3ccccn3)[nH]2)cc1 [SB431542]
HTB63 melanoma cells [1]; 10 μM SB431542, serum-free medium
  Effect on migration of HTB63 cells: inhibited
HTB63 melanoma cells [2]; 10 μM SB431542, 24 hours
  Effect on migration of HTB63 cells in the invasion assay: stimulated
[3]; 10 μM SB431542, 4 days
  Endogenous Wnt-5a protein expression in HTB63 cells: significantly reduced
[3]; 10 μM SB431542, 5 days
  Endogenous Wnt-5a protein expression in HTB63 cells: almost abolished

## Foxy5: Met-Asp-Gly-Cys-Glu-Leu hexapeptide formylated at the N-terminal Met, agonist of Wnt-5a signalling (For-MDGCEL)
A2058 melanoma cells [4]; 50 μM Foxy5, 0, 16, 24, 40 and 48 hours
  Effect on migration of A2058 cells: promotes
Breast cancer cell
  Signaling and inhibition of breast cancer cell migration: mimic the effects of Wnt-5a
Breast cancer metastasis
  Breast cancer metastasis: inhibits

## t-boc-Met-Asp-Gly-Cys-Glu-Leu (Boc-MDGCEL) [Box5, novel Wnt-5a-derived N-butyloxycarbonyl hexapeptide (Met-Asp-Gly-Cys-Glu-Leu), Wnt-5a antagonist]
A2058 melanoma cells [4]; 100 μM Box5, 0.2 μg/ml Wnt-5a, wound area closed over 0-48 hours
  Effect on Wnt-5a-induced migration of A2058 cells: abolished
A2058 melanoma cells [4]; 100 μM Box5, no Wnt-5a, wound area closed over 0-48 hours
  Effect on intrinsic (basal) migration of A2058 cells: no effect
A2058 melanoma cells [4]; 100 μM Box5 pre-incubated 40 minutes, 5 ng/ml TGF-β1
  Effect on TGF-β1-induced migration of A2058 cells: abolished; also recorded: blocked
HTB63 melanoma cells [1]; 100 μM peptide in conditioned medium containing secreted Wnt-5a
  Effect on migration of HTB63 cells: inhibits
A2058 melanoma cells [5]; 100 μM Box5, 0.2 μg/ml Wnt-5a, 24 hours
  Effect on Wnt-5a-induced invasion of A2058 cells: abolished
A2058 melanoma cells [5]; 100 μM Box5, 24 hours
  Effect on basal invasion of A2058 cells: no effect
HTB63 melanoma cells [2]; 100 μM Box5, 24 hours
  Effect on invasion of HTB63 cells (endogenous Wnt-5a): inhibit
[6]; 100 μM Box5, charbacol 5 μM
  Effect on charbacol-induced Ca^2+ signaling: no significant effect
[6]; 100 μM Box5, endothelin-1 10 nM
  Effect on endothelin-1-induced Ca^2+ signaling: no significant effect
[6]; 100 μM Box5 overnight pre-incubation, 0.1 μg/ml Wnt-5a
  Inhibition of Wnt-5a-induced Ca^2+ signal (peak values): more than 70%
PKC
  Effect on Wnt-5a-induced MARCKS phosphorylation: inhibited; also recorded: abolished
